Reference: ChEMBL document CHEMBL1138948, “Design, synthesis, and evaluation of proline and pyrrolidine based melanocortin receptor agonists. A conformationally restricted dipeptide mimic approach” (J Med Chem, 2006)

Key:
[1] = Absorptive permeability across Caco-2 cell membrane; format: ADME, cell-based; conditions: human, read-out: permeability (converted)
[2] = Exsorptive permeability across Caco-2 cell membrane; format: ADME, cell-based; conditions: human, read-out: permeability (converted)
[3] = target: T1, Melanocyte-stimulating hormone receptor (Homo sapiens, UniProt Q01726); experiment: Displacement of europium labeled NDP-alpha-MSH from human MC1R expressed in HEK293 cells; format: cell-based
T1 sequence (Q01726 whole entry): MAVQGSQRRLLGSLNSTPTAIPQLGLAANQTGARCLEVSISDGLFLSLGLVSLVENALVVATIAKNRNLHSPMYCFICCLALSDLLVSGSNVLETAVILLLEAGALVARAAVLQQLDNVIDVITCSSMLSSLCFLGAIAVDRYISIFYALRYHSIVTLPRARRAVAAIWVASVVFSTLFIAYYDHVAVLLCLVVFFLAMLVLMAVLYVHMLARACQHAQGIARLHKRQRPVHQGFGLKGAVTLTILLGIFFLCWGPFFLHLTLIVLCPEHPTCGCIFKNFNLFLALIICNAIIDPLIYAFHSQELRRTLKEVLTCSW

Melanocortin receptor 3 [4] = target: T2, Melanocortin receptor 3 (Homo sapiens, UniProt P41968); experiment: Displacement of europium labeled NDP-alpha-MSH from human MC3R expressed in HEK293 cells; format: cell-based
T2 sequence (P41968 whole entry): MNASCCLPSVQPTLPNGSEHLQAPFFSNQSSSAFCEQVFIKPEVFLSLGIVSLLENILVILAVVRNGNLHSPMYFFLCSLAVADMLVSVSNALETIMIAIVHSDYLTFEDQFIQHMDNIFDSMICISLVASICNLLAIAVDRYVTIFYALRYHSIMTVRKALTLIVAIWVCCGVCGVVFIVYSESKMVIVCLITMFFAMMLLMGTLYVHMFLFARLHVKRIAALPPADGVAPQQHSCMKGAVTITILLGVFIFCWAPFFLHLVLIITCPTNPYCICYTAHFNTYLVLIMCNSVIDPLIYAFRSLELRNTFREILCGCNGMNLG

Melanocortin receptor 4 [5] = target: T3, Melanocortin receptor 4 (Homo sapiens, UniProt P32245); experiment: Displacement of europium labeled NDP-alpha-MSH from human MC4R expressed in HEK293 cells; format: cell-based
T3 sequence (P32245 whole entry): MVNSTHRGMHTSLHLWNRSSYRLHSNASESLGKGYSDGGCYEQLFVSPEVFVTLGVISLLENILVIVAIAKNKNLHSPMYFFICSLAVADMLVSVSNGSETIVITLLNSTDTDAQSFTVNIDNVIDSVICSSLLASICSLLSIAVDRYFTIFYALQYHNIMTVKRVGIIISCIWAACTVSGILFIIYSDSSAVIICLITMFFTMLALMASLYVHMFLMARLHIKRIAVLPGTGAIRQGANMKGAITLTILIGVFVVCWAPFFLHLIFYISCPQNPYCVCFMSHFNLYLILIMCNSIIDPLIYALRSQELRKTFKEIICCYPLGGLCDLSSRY

[6] = target: T1, Melanocyte-stimulating hormone receptor; experiment: Agonist activity at human MC1R transfected in HEK293 cells; format: functional, cell-based
Melanocortin receptor 3 [7] = target: T2, Melanocortin receptor 3; experiment: Agonist activity at human MC3R transfected in HEK293 cells; format: functional, cell-based
Melanocortin receptor 4 [8] = target: T3, Melanocortin receptor 4; experiment: Agonist activity at human MC4R transfected in HEK293 cells; format: functional, cell-based
[9] = target: Melanocortin receptor (M1 and M4) (Homo sapiens) (UniProt P32245+Q01726); experiment: Selectivity for human MC4R over human MC1R; format: protein assay

OC[C@@H](O)[C@@H](O)[C@H](O)[C@H](O)CO [MANNITOL]
Papp A→B [1]: 2.17 ×10⁻⁶ cm/s
Papp [2]: 1.83 ×10⁻⁶ cm/s

CC(=O)N[C@H](Cc1ccccc1)C(=O)N1C[C@H](OCc2ccc3ccccc3c2)C[C@@H]1CCCN=C(N)N
Ki [3]: 463 nM
Ki (Melanocortin receptor 3 [4]): 289 nM
Papp A→B [1]: 7.5 ×10⁻⁶ cm/s
Papp [2]: 6.17 ×10⁻⁶ cm/s
Ki (Melanocortin receptor 4 [5]): 90 nM
EC50 [6]: 232 nM
EC50 (Melanocortin receptor 3 [7]): 1380 nM
EC50 (Melanocortin receptor 4 [8]): 317 nM

CC(=O)N[C@@H](Cc1cnc[nH]1)C(=O)N[C@H](Cc1ccccc1)C(=O)N1C[C@H](OCc2ccc3ccccc3c2)C[C@@H]1C(=O)NCCN=C(N)N
Ki [3]: 13 nM
Ki (Melanocortin receptor 3 [4]): 824 nM
Papp A→B [1]: 1 ×10⁻⁶ cm/s
Papp [2]: 0.5 ×10⁻⁶ cm/s
Ki (Melanocortin receptor 4 [5]): 1580 nM
EC50 [6]: 3 nM
EC50 (Melanocortin receptor 3 [7]): 340 nM
EC50 (Melanocortin receptor 4 [8]): 152 nM

NC(N)=NCCC[C@H]1C[C@@H](OCc2ccc3ccccc3c2)CN1C(=O)[C@@H](Cc1ccccc1)NC(=O)[C@@H]1CCCN1
Ki [3]: 55 nM
Ki (Melanocortin receptor 3 [4]): 219 nM
Ki (Melanocortin receptor 4 [5]): 46 nM
EC50 [6]: 52 nM
EC50 (Melanocortin receptor 3 [7]): 593 nM
EC50 (Melanocortin receptor 4 [8]): 17 nM

CC(=O)N[C@@H](Cc1ccc(O)cc1)C(=O)N[C@H](Cc1ccccc1)C(=O)N1C[C@@H](OCc2ccc3ccccc3c2)C[C@H]1CCCN=C(N)N
Ki [3]: 2450 nM
Ki (Melanocortin receptor 3 [4]): 2880 nM
Ki (Melanocortin receptor 4 [5]): 492 nM
EC50 [6]: 1810 nM
EC50 (Melanocortin receptor 3 [7]): 1170 nM
EC50 (Melanocortin receptor 4 [8]): 252 nM

CC(=O)N[C@@H](Cc1cnc[nH]1)C(=O)N[C@H](Cc1ccccc1)C(=O)N1C[C@H](OCc2ccc3ccccc3c2)C[C@@H]1CCCN=C(N)N
Ki [3]: 0.65 nM
Ki (Melanocortin receptor 3 [4]): 26 nM
Ki (Melanocortin receptor 4 [5]): 17 nM
EC50 [6]: 0.3 nM
EC50 (Melanocortin receptor 3 [7]): 15 nM
EC50 (Melanocortin receptor 4 [8]): 3.7 nM

NC(N)=NCCNC(=O)[C@H]1C[C@@H](OCc2ccc3ccccc3c2)CN1C(=O)[C@@H](Cc1ccccc1)NC(=O)C1CCNCC1
Ki [3]: 121 nM
Ki (Melanocortin receptor 3 [4]): 3180 nM
Ki (Melanocortin receptor 4 [5]): 1020 nM
EC50 [6]: 104 nM
EC50 (Melanocortin receptor 3 [7]): 2470 nM
EC50 (Melanocortin receptor 4 [8]): 501 nM

NC(=O)C[C@H](N)C(=O)N[C@H](Cc1ccccc1)C(=O)N1C[C@@H](OCc2ccc3ccccc3c2)C[C@H]1CCCN=C(N)N
Ki [3]: 1570 nM
Ki (Melanocortin receptor 3 [4]): 29100 nM
Ki (Melanocortin receptor 4 [5]): 8160 nM
EC50 [6]: 521 nM
EC50 (Melanocortin receptor 3 [7]): 2990 nM
EC50 (Melanocortin receptor 4 [8]): 1620 nM

N=C(N)NCCC[C@H]1C[C@H](OCc2ccc3ccccc3c2)CN1C(=O)[C@@H](Cc1ccccc1)NC(=O)[C@@H]1Cc2ccccc2CN1
Ki [3]: 562 nM
Ki (Melanocortin receptor 3 [4]): 529 nM
Ki (Melanocortin receptor 4 [5]): 97 nM
EC50 [6]: 72 nM
EC50 (Melanocortin receptor 3 [7]): 214 nM
EC50 (Melanocortin receptor 4 [8]): 36 nM

NC(N)=NCCC[C@H]1C[C@@H](OCc2ccc3ccccc3c2)CN1C(=O)[C@H](N)Cc1ccccc1
Ki [3]: 381 nM
Ki (Melanocortin receptor 3 [4]): 1240 nM
Ki (Melanocortin receptor 4 [5]): 305 nM
EC50 [6]: 151 nM
EC50 (Melanocortin receptor 3 [7]): 871 nM
EC50 (Melanocortin receptor 4 [8]): 291 nM

CC(=O)N[C@@H](Cc1ccccc1)C(=O)N[C@H](Cc1ccccc1)C(=O)N1C[C@H](OCc2ccc3ccccc3c2)C[C@@H]1CCCN=C(N)N
Ki [3]: 182 nM
Ki (Melanocortin receptor 3 [4]): 154 nM
Ki (Melanocortin receptor 4 [5]): 59 nM
EC50 [6]: 201 nM
EC50 (Melanocortin receptor 3 [7]): 313 nM
EC50 (Melanocortin receptor 4 [8]): 20 nM

CC(=O)N[C@@H](CCC(N)=O)C(=O)N[C@H](Cc1ccccc1)C(=O)N1C[C@H](OCc2ccc3ccccc3c2)C[C@@H]1CCCN=C(N)N
Ki [3]: 35 nM
Ki (Melanocortin receptor 3 [4]): 50 nM
Ki (Melanocortin receptor 4 [5]): 18 nM
EC50 [6]: 45 nM
EC50 (Melanocortin receptor 3 [7]): 42 nM
EC50 (Melanocortin receptor 4 [8]): 4.3 nM

N=C(N)NCCNC(=O)[C@H]1C[C@@H](OCc2ccc3ccccc3c2)CN1C(=O)[C@@H](Cc1ccccc1)NC(=O)[C@@H]1Cc2ccccc2CN1
Ki [3]: 1620 nM
Ki (Melanocortin receptor 3 [4]): 4390 nM
Selectivity ratio [9]: 4
Ki (Melanocortin receptor 4 [5]): 411 nM
EC50 [6]: 539 nM
EC50 (Melanocortin receptor 3 [7]): 825 nM
EC50 (Melanocortin receptor 4 [8]): 97 nM

CC(=O)N[C@@H](Cc1ccc(O)cc1)C(=O)N[C@H](Cc1ccccc1)C(=O)N1C[C@H](OCc2ccc3ccccc3c2)C[C@@H]1C(=O)NCCN=C(N)N
Ki [3]: 2050 nM
Ki (Melanocortin receptor 3 [4]): 501 nM
Selectivity ratio [9]: 4
Ki (Melanocortin receptor 4 [5]): 559 nM
EC50 [6]: 1340 nM
EC50 (Melanocortin receptor 3 [7]): 1220 nM
EC50 (Melanocortin receptor 4 [8]): 254 nM

CC(=O)N[C@@H](Cc1c[nH]cn1)C(=O)N[C@H](Cc1ccccc1)C(=O)N1C[C@@H](OCc2ccc3ccccc3c2)C[C@H]1CCCN=C(N)N
Ki [3]: 2970 nM
Ki (Melanocortin receptor 3 [4]): 1960 nM
Selectivity ratio [9]: > 150
Ki (Melanocortin receptor 4 [5]): 14 nM
EC50 [6]: 1220 nM
EC50 (Melanocortin receptor 3 [7]): 1130 nM
EC50 (Melanocortin receptor 4 [8]): 9 nM

N=C(N)NCCC[C@@H]1C[C@@H](OCc2ccc3ccccc3c2)CN1C(=O)[C@@H](Cc1ccccc1)NC(=O)[C@@H]1Cc2ccccc2CN1
Ki [3]: 19 nM
Ki (Melanocortin receptor 3 [4]): 8100 nM
Ki (Melanocortin receptor 4 [5]): 4390 nM
EC50 [6]: 19 nM
EC50 (Melanocortin receptor 3 [7]): 1470 nM
EC50 (Melanocortin receptor 4 [8]): 1090 nM

CC(=O)N[C@@H](Cc1ccc(O)cc1)C(=O)N[C@H](Cc1ccccc1)C(=O)N1C[C@H](OCc2ccc3ccccc3c2)C[C@@H]1CCCN=C(N)N
Ki [3]: 85 nM
Ki (Melanocortin receptor 3 [4]): 42 nM
Selectivity ratio [9]: 4
Ki (Melanocortin receptor 4 [5]): 21 nM
EC50 [6]: 88 nM
EC50 (Melanocortin receptor 3 [7]): 85 nM
EC50 (Melanocortin receptor 4 [8]): 14 nM

CC(=O)N[C@@H](CCC(N)=O)C(=O)N[C@H](Cc1ccccc1)C(=O)N1C[C@H](OCc2ccc3ccccc3c2)C[C@@H]1C(=O)NCCN=C(N)N
Ki [3]: 893 nM
Ki (Melanocortin receptor 3 [4]): 1490 nM
Ki (Melanocortin receptor 4 [5]): 632 nM
EC50 [6]: 328 nM
EC50 (Melanocortin receptor 3 [7]): 563 nM
EC50 (Melanocortin receptor 4 [8]): 184 nM

N=C(N)NCCC[C@H]1C[C@@H](OCc2ccc3ccccc3c2)CN1C(=O)[C@@H](Cc1ccccc1)NC(=O)[C@@H]1Cc2ccccc2CN1
Ki [3]: 42 nM
Ki (Melanocortin receptor 3 [4]): 86 nM
Ki (Melanocortin receptor 4 [5]): 10 nM
EC50 [6]: 98 nM
EC50 (Melanocortin receptor 3 [7]): 232 nM
EC50 (Melanocortin receptor 4 [8]): 10 nM

NC(N)=NCCNC(=O)[C@H]1C[C@@H](OCc2ccc3ccccc3c2)CN1C(=O)[C@@H](Cc1ccccc1)NC(=O)[C@@H](N)Cc1c[nH]cn1
Ki [3]: 15 nM
Ki (Melanocortin receptor 3 [4]): 703 nM
Ki (Melanocortin receptor 4 [5]): 760 nM
EC50 [6]: 24 nM
EC50 (Melanocortin receptor 3 [7]): 266 nM
EC50 (Melanocortin receptor 4 [8]): 249 nM

N=C(N)NCCNC(=O)[C@H]1C[C@@H](OCc2ccc3ccccc3c2)CN1C(=O)[C@@H](Cc1ccccc1)NC(=O)[C@@H]1CCCCN1
Ki [3]: 631 nM
Ki (Melanocortin receptor 3 [4]): 3850 nM
Ki (Melanocortin receptor 4 [5]): 1380 nM
EC50 [6]: 390 nM
EC50 (Melanocortin receptor 3 [7]): 1770 nM
EC50 (Melanocortin receptor 4 [8]): 292 nM

N=C(N)NCCC[C@H]1C[C@H](OCc2ccc3ccccc3c2)CN1C(=O)[C@@H](Cc1ccccc1)NC(=O)[C@@H]1CCCCN1
Ki [3]: 125 nM
Ki (Melanocortin receptor 3 [4]): 1260 nM
Ki (Melanocortin receptor 4 [5]): 121 nM
EC50 [6]: 28 nM
EC50 (Melanocortin receptor 3 [7]): 286 nM
EC50 (Melanocortin receptor 4 [8]): 54 nM
